± gives the expanded uncertainty stated by the source.
Test: an = ratio of the nth substance listed
Settings: 101 kPa, Liquid, Pycnometric method

mass density (293.15 K, a1 = 0.25) | mass density (293.15 K, a1 = 0.33) | mass density (303.15 K, a1 = 0.25) | mass density (303.15 K, a1 = 0.33) | mass density (313.15 K, a1 = 0.25) | mass density (313.15 K, a1 = 0.33) | mass density (323.15 K, a1 = 0.25) | mass density (323.15 K, a1 = 0.33) | SMILES | mass density (293.15 K, a2 = 0.25) | mass density (293.15 K, a2 = 0.33) | mass density (303.15 K, a2 = 0.25) | mass density (303.15 K, a2 = 0.33) | mass density (313.15 K, a2 = 0.25) | mass density (313.15 K, a2 = 0.33) | mass density (323.15 K, a2 = 0.25) | mass density (323.15 K, a2 = 0.33)
 |  |  |  |  |  |  |  | OCCCCO [1,4-butanediol] + C[N+](C)(C)CCO.[Cl-] | 1044.5 ± 1.7 kg/m3 | 1052.4 ± 1.7 kg/m3 | 1041.1 ± 1.7 kg/m3 | 1049 ± 1.7 kg/m3 | 1035.4 ± 1.7 kg/m3 | 1043.2 ± 1.7 kg/m3 | 1030.6 ± 1.7 kg/m3 | 1038.4 ± 1.7 kg/m3
 |  |  |  |  |  |  |  | CC(O)C(C)O (centres undefined) [2,3-butanediol] + C[N+](C)(C)CCO.[Cl-] | 1035 ± 1.7 kg/m3 | 1046.8 ± 1.7 kg/m3 | 1030.9 ± 1.7 kg/m3 | 1039 ± 1.7 kg/m3 | 1026.5 ± 1.7 kg/m3 | 1035.7 ± 1.7 kg/m3 | 1019.7 ± 1.7 kg/m3 | 1030 ± 1.7 kg/m3
1066.3 ± 1.7 kg/m3 | 1066.6 ± 1.7 kg/m3 | 1060.2 ± 1.7 kg/m3 | 1059.9 ± 1.7 kg/m3 | 1054.1 ± 1.7 kg/m3 | 1053.3 ± 1.7 kg/m3 | 1048 ± 1.7 kg/m3 | 1046.7 ± 1.7 kg/m3 | C[N+](C)(C)CCO.[Cl-] [choline chloride] + CC(O)CO |  |  |  |  |  |  |  | 

Source: the NIST ThermoML archive (doi:10.1021/je400884v)
